Data: ChEMBL document CHEMBL5661943, “ASAP - In vitro antiviral effect” (2024)
Where “and” joins values, the source holds several entries; their conditions need not be identical. Identical values can stand only once.

Key:
[1] = tested on: dengue virus type 2; experiment: Functional immunofluorescence assay to measure dose dependent changes in antiviral-drug inhibitory efficacy against Dengue virus type 2 Thailand/16681/84 in Vero E6/TMPRSS2 cells (cotreated with P-gp inhibitor, Elacridar). Cells are treated with antiviral candidates that are serially diluted, following infection, cells are fixed. EC50 is reported via analysis of immunofluorescence staining. The assay has been performed by Icahn School of Medicine at Mount Sinai.; type: organism-based, Chlorocebus sabaeus, VeroE6/TMPRSS2; settings: for EC90: P-gp concentration 2 uM, P-gp inhibitor Elacidar
[2] = tested on: Zika virus; experiment: EC50 is reported via analysis of immunofluorescence staining. The assay has been performed by Icahn School of Medicine at Mount Sinai.; type: functional, organism-based, Chlorocebus sabaeus, VeroE6/TMPRSS2; settings: for EC90: P-gp concentration 2 uM, P-gp inhibitor Elacidar
[3] = tested on: Zika virus; experiment: Functional CPE-based assay to measure dose dependent changes in antiviral-drug inhibitory efficacy against Zika virus MR766 in Vero E6 miRFP670 cells (cotreated with P-gp inhibitor, CP100356). Cells are treated with antiviral candidates that are serially diluted. EC50 is reported via analysis of MTS assay as a readout of CPE. The assay has been performed by KU Leuven.; type: organism-based, Chlorocebus sabaeus, Vero C1008; settings: for EC90: Baseline response 0 %, Maximum response 100 %, P-gp concentration 500 nM, P-gp inhibitor CP100356
[4] = tested on: dengue virus type 2; experiment: Functional assay to measure dose dependent changes in antiviral-drug inhibitory efficacy against Dengue virus type 2 New Guinea C in Vero E6 miRFP670 cells (cotreated with P-gp inhibitor, CP100356). Cells are treated with antiviral candidates that are serially diluted, following infection, cells are fixed. EC50 is reported via analysis of fluorescence intensity using high-content imager. The …; type: organism-based, Chlorocebus sabaeus, Vero C1008; settings: for EC90: P-gp concentration 500 nM, P-gp inhibitor CP100356

For `NCc1cccc(NC(=O)c2cc(Cl)cc(CN)c2)c1`, the EC90 ([1]; Baseline response 0 %, Hill slope -0.259, Maximum measured 118.193 %, Maximum response 100 %, Minimum measured 55.278 %, R squared 0.275) was over 10 µM, the EC90 ([1]; Baseline response 0 %, Hill slope -0.379, Maximum measured 148.524 %, Maximum response 100 %, Minimum measured 29.621 %, R squared 0.276) was over 50 µM and the EC50 ([1]; veroe6/tmprss2) was > 10 µM and 48.2 µM. The EC90 ([2]; Zika virus, VeroE6/TMPRSS2, Maximum measured 123.027 %, Minimum measured 86.3 %) was over 50 µM, the EC90 ([2]; Zika virus, VeroE6/TMPRSS2, Baseline response 0 %, Hill slope -0.468, Maximum measured 130.938 %, Maximum response 100 %, Minimum measured 51.052 %, R squared 0.396) was over 3.33 µM and the EC50 ([2]; veroe6/tmprss2) was over 50 µM.

Compound `CC[C@H](Cc1nnn[nH]1)c1ccc(NC(=O)c2cc(Cl)cc(-n3cccc3)c2)cc1` has an EC50 ([1]; Dengue virus, VeroE6/TMPRSS2) of 42.5 µM, an EC90 ([1]; Dengue virus, VeroE6/TMPRSS2, Baseline response 0 %, Hill slope -23.366, Maximum measured 115.315 %, Maximum response 100 %, Minimum measured 2.218 %, R squared 0.505) of 46.7 µM and an EC50 ([2]; Zika virus, VeroE6/TMPRSS2) of 46.8 µM. The EC90 ([2]; Zika virus, VeroE6/TMPRSS2, Baseline response 0 %, Hill slope -17.276, Maximum measured 183.537 %, Maximum response 154.104 %, Minimum measured 37.545 %, R squared 0.817) was over 50 µM.

Work on `NS(=O)(=O)c1ccc(C2CCN(Cc3c[nH]c4ccccc34)CC2)cc1` yielded an EC50 ([1]; Dengue virus, VeroE6/TMPRSS2) of over 50 µM, an EC90 ([1]; Dengue virus, VeroE6/TMPRSS2, Baseline response 0 %, Hill slope -0.438, Maximum measured 120.121 %, Maximum response 100 %, Minimum measured 70.269 %, R squared 0.213) of over 50 µM and an EC90 ([2]; Zika virus, VeroE6/TMPRSS2, Maximum measured 220.71 %, Minimum measured 69.091 %) of over 10 µM. The EC90 ([2]; Zika virus, VeroE6/TMPRSS2, Baseline response 0 %, Hill slope -0.394, Maximum measured 150.63 %, Maximum response 100 %, Minimum measured 65.565 %, R squared 0.026) was over 50 µM and the EC50 ([2]; veroe6/tmprss2) was over 50 µM.

`N#C[C@H](Nc1ccc2c(c1)CNC2)c1cc(Cl)cc(C2CC2)c1` was tested, and the EC50 ([1]; Dengue virus, VeroE6/TMPRSS2) was over 16.7 µM, the EC90 ([1]; Dengue virus, VeroE6/TMPRSS2, Maximum measured 136.887 %, Minimum measured 85.602 %) was over 16.7 µM and the EC50 ([3]; Zika virus, Vero C1008) was 19.3 µM. It also gave an EC90 ([3]; Zika virus, Vero C1008, Hill slope 4.333, Maximum measured 75.439 %, Minimum measured -2.703 %, R squared 0.979) of over 25 µM, an EC50 ([4]; Dengue virus, Vero C1008) of 45.6 µM and an EC90 ([4]; Dengue virus, Vero C1008, Baseline response 0 %, Hill slope -4.312, Maximum measured 125.602 %, Maximum response 100 %, Minimum measured 40.399 %, R squared 0.668) of over 50 µM.

`CCc1cc(Cl)cc(C(=O)Nc2ccc3c(c2)CNC3)c1` showed an EC50 ([1]; Dengue virus, VeroE6/TMPRSS2) of over 16.7 µM and an EC90 ([1]; Dengue virus, VeroE6/TMPRSS2, Baseline response 0 %, Hill slope -0.226, Maximum measured 109.554 %, Maximum response 100 %, Minimum measured 84.826 %, R squared 0.106) of over 16.7 µM.

`COCCNC(=O)[C@H](Nc1ccc2c(c1)CNC2)c1cc(Cl)cc(C2CC2)c1` was tested, and the EC90 ([2]; Baseline response 0 %, Hill slope -0.71, Maximum measured 110.043 %, Maximum response 100 %, Minimum measured 53.247 %, R squared 0.662) was over 5.56 µM, the EC50 ([2]; Zika virus, VeroE6/TMPRSS2) was over 5.56 µM and the EC90 ([2]; Zika virus, VeroE6/TMPRSS2, Baseline response 0 %, Hill slope -0.244, Maximum measured 65.627 %, Maximum response 50 %, Minimum measured 21.531 %, R squared 0.09) was over 5.56 µM. For the same compound, the EC90 ([3]; EC90 CI (lower) 3.438 uM, EC90 CI (upper) 13.705 uM, Hill slope 5.727, Maximum measured 103.141 %, Minimum measured 2.231 %, R squared 0.527) was 6.86 µM, the EC90 ([3]; Hill slope 2.264, Maximum measured 83.807 %, Minimum measured -2.671 %, R squared 0.978) was over 50 µM and the EC50 ([3]; vero c1008) was 26 µM and 4.68 µM. The EC50 ([4]; Dengue virus, Vero C1008) was 40.2 µM, the EC90 ([4]; Dengue virus, Vero C1008, Maximum measured 154.141 %, Minimum measured 87.25 %) was over 50 µM and the EC90 ([4]; Dengue virus, Vero C1008, Baseline response 0 %, Hill slope -1.76, Maximum measured 106.994 %, Maximum response 100 %, Minimum measured 48.696 %, R squared 0.783) was over 50 µM. It also gave an EC50 ([4]; vero c1008) of over 50 µM.

`O=C(Nc1ccc2c(c1)CNC2)c1cc(Br)cc2[nH]c([C@H]3CCOC3)nc12` showed an EC50 ([2]; Zika virus, VeroE6/TMPRSS2) of over 5.56 µM, an EC90 ([2]; Zika virus, VeroE6/TMPRSS2, Maximum measured 90.854 %, Minimum measured 45.403 %) of over 5.56 µM and an EC50 ([3]; Zika virus, Vero C1008) of 0.918 µM. It also gave an EC90 ([3]; Zika virus, Vero C1008, Hill slope 2.359, Maximum measured 80.04 %, Minimum measured 15.463 %, R squared 0.714) of over 1.56 µM, an EC50 ([4]; Dengue virus, Vero C1008) of over 3.12 µM and an EC90 ([4]; Dengue virus, Vero C1008, Baseline response 0 %, Hill slope -2.03, Maximum measured 96.655 %, Maximum response 100 %, Minimum measured 50.768 %, R squared 0.853) of over 3.12 µM.

`Nc1cc(Cl)cc(C(=O)Nc2ccc3c(c2)CNC3)c1N` was tested, and the EC50 ([1]; Dengue virus, VeroE6/TMPRSS2) was 41.9 µM, the EC90 ([1]; Dengue virus, VeroE6/TMPRSS2, Baseline response 0 %, Hill slope -3.096, Maximum measured 144.717 %, Maximum response 100 %, Minimum measured 36.673 %, R squared 0.131) was over 50 µM and the EC50 ([3]; Zika virus, Vero C1008) was over 50 µM. It also gave an EC90 ([3]; Zika virus, Vero C1008, Hill slope 0.699, Maximum measured 36.917 %, Minimum measured 3.264 %, R squared 0.811) of over 50 µM, an EC50 ([4]; Dengue virus, Vero C1008) of over 50 µM and an EC90 ([4]; Dengue virus, Vero C1008, Baseline response 0 %, Hill slope 0.309, Maximum measured 103.631 %, Maximum response 100 %, Minimum measured 71.641 %, R squared 0.1) of over 50 µM.
